Source: the supplement of paper PMC11451515

Columns and labels:
Conditions in all cases: 48 h
NOMO1 [1] = test: AUC of viability dose-response curve (% viability x log10 dose units); higher = less sensitive
Procedure, shortened: (§1)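 Viability of medium-adapted leukemia cells was measured by CellTiter-Glo One luminescence after 48 h at 37°C with library compounds in DMSO. Doses were 11 threefold steps from 47 μM to 0.79 nM, in 1536-well plates at 500 or 1000 cells/well. Signals were normalised per plate to DMSO and cell-free wells and fitted with a four-parameter log-logistic model on log10 dose. Area under the curve was integrated by trapezoidal rule, with curves exceeding full viability scaled and failed quality-control curves removed.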

P12-Ichikawa [2] = test: as above
Procedure, shortened: as §1

SEM cells [3] = test: as above
Procedure, shortened: as §1

NOMO1 [4] = test: cell viability relative to DMSO control; higher = less cytotoxic
Procedure, shortened: (§2)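 Viability, reported as a per-plate percentage of DMSO wells with cell-free wells as background, came from CellTiter-Glo One luminescence. Reading took place after 48 h at 37°C. Before that, NOMO1 or SEM (500 cells/well) or P12-Ichikawa (1000 cells/well) leukemia cells, adapted for at least four passages in each medium, were seeded in 1536-well plates (5 μl) and pin-dosed with library compounds in DMSO, 47 μM to 0.79 nM over 11 threefold points.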

P12-Ichikawa [5] = test: as above
Procedure, shortened: as §2

SEM cells [6] = test: as above
Procedure, shortened: as §2

[7] = RPMI 5 mM glucose + 10% dialyzed FBS
[8] = HPLM + 10% dialyzed FBS, 0.000781 µM
[9] = HPLM + 10% dialyzed FBS, 0.00234 µM
[10] = HPLM + 10% dialyzed FBS, 0.00702 µM
[11] = HPLM + 10% dialyzed FBS, 0.0211 µM
[12] = HPLM + 10% dialyzed FBS, 0.0632 µM
[13] = HPLM + 10% dialyzed FBS, 0.19 µM
[14] = HPLM + 10% dialyzed FBS, 0.569 µM
[15] = HPLM + 10% dialyzed FBS, 1.71 µM
[16] = HPLM + 10% dialyzed FBS, 5.12 µM
[17] = HPLM + 10% dialyzed FBS, 15.4 µM
[18] = HPLM + 10% dialyzed FBS, 46.1 µM
[19] = RPMI 5 mM glucose + 10% FBS, 0.000781 µM
[20] = RPMI 5 mM glucose + 10% FBS, 0.00234 µM
[21] = RPMI 5 mM glucose + 10% FBS, 0.00702 µM
[22] = RPMI 5 mM glucose + 10% FBS, 0.0211 µM
[23] = RPMI 5 mM glucose + 10% FBS, 0.0632 µM
[24] = RPMI 5 mM glucose + 10% FBS, 0.19 µM
[25] = RPMI 5 mM glucose + 10% FBS, 0.569 µM
[26] = RPMI 5 mM glucose + 10% FBS, 1.71 µM
[27] = RPMI 5 mM glucose + 10% FBS, 5.12 µM
[28] = RPMI 5 mM glucose + 10% FBS, 15.4 µM
[29] = RPMI 5 mM glucose + 10% FBS, 46.1 µM
[30] = RPMI 5 mM glucose + 10% dialyzed FBS, 0.000781 µM
[31] = RPMI 5 mM glucose + 10% dialyzed FBS, 0.00234 µM
[32] = RPMI 5 mM glucose + 10% dialyzed FBS, 0.00702 µM
[33] = RPMI 5 mM glucose + 10% dialyzed FBS, 0.0211 µM
[34] = RPMI 5 mM glucose + 10% dialyzed FBS, 0.0632 µM
[35] = RPMI 5 mM glucose + 10% dialyzed FBS, 0.19 µM
[36] = RPMI 5 mM glucose + 10% dialyzed FBS, 0.569 µM
[37] = RPMI 5 mM glucose + 10% dialyzed FBS, 1.71 µM
[38] = RPMI 5 mM glucose + 10% dialyzed FBS, 5.12 µM
[39] = RPMI 5 mM glucose + 10% dialyzed FBS, 15.4 µM
[40] = RPMI 5 mM glucose + 10% dialyzed FBS, 46.1 µM

`CC1(C)[C@H](C(=O)O)N2C(=O)C[C@H]2[S+]1(=O)[O-]` was tested, and the “AUC of viability dose-response curve” value (NOMO1 [1]; HPLM + 10% dialyzed FBS) was 396, the “AUC of viability dose-response curve” value (NOMO1 [1]; RPMI 5 mM glucose + 10% FBS) was 411 and the “AUC of viability dose-response curve” value (NOMO1 [1]; [7]) was 420. The “AUC of viability dose-response curve” value (P12-Ichikawa [2]; HPLM + 10% dialyzed FBS) was 468, the “AUC of viability dose-response curve” value (P12-Ichikawa [2]; RPMI 5 mM glucose + 10% FBS) was 470 and the “AUC of viability dose-response curve” value (P12-Ichikawa [2]; [7]) was 469. The “AUC of viability dose-response curve” value (SEM cells [3]; HPLM + 10% dialyzed FBS) was 472, the “AUC of viability dose-response curve” value (SEM cells [3]; RPMI 5 mM glucose + 10% FBS) was 468 and the “AUC of viability dose-response curve” value (SEM cells [3]; [7]) was 472.
Work on `OC(=O)CNC(=O)\C1=C(/O)C2=CC=CC=C2N(CC3=CC=CC=C3)C1=O` yielded a cell viability (NOMO1 [4]; [8]) of 98.2%, a cell viability (NOMO1 [4]; [9]) of 109% and a cell viability (NOMO1 [4]; [10]) of 92%. For the same compound, the cell viability (NOMO1 [4]; [11]) was 112%, the cell viability (NOMO1 [4]; [12]) was 108% and the cell viability (NOMO1 [4]; [13]) was 97.7%. The cell viability (NOMO1 [4]; [14]) was 105%, the cell viability (NOMO1 [4]; [15]) was 87.3% and the cell viability (NOMO1 [4]; [16]) was 109%. It also gave a cell viability (NOMO1 [4]; [17]) of 101%, a cell viability (NOMO1 [4]; [18]) of 93.6% and a cell viability (NOMO1 [4]; [19]) of 83.7%. It also gave a cell viability (NOMO1 [4]; [20]) of 89.5%, a cell viability (NOMO1 [4]; [21]) of 100% and a cell viability (NOMO1 [4]; [22]) of 91.7%. The cell viability (NOMO1 [4]; [23]) was 96.3%, the cell viability (NOMO1 [4]; [24]) was 93% and the cell viability (NOMO1 [4]; [25]) was 96.2%. It also gave a cell viability (NOMO1 [4]; [26]) of 83.5%, a cell viability (NOMO1 [4]; [27]) of 84.9% and a cell viability (NOMO1 [4]; [28]) of 85.1%. For the same compound, the cell viability (NOMO1 [4]; [29]) was 86.4%, the cell viability (NOMO1 [4]; [30]) was 93% and the cell viability (NOMO1 [4]; [31]) was 94.6%. For the same compound, the cell viability (NOMO1 [4]; [32]) was 87.9%, the cell viability (NOMO1 [4]; [33]) was 101% and the cell viability (NOMO1 [4]; [34]) was 95.7%. For the same compound, the cell viability (NOMO1 [4]; [35]) was 94%, the cell viability (NOMO1 [4]; [36]) was 97.2% and the cell viability (NOMO1 [4]; [37]) was 102%. For the same compound, the cell viability (NOMO1 [4]; [38]) was 94.7%, the cell viability (NOMO1 [4]; [39]) was 93% and the cell viability (NOMO1 [4]; [40]) was 74.3%. It also gave a cell viability (P12-Ichikawa [5]; [8]) of 97.6%, a cell viability (P12-Ichikawa [5]; [9]) of 113% and a cell viability (P12-Ichikawa [5]; [10]) of 102%. For the same compound, the cell viability (P12-Ichikawa [5]; [11]) was 104%, the cell viability (P12-Ichikawa [5]; [12]) was 104% and the cell viability (P12-Ichikawa [5]; [13]) was 100%. For the same compound, the cell viability (P12-Ichikawa [5]; [14]) was 105%, the cell viability (P12-Ichikawa [5]; [15]) was 101% and the cell viability (P12-Ichikawa [5]; [16]) was 101%. It also gave a cell viability (P12-Ichikawa [5]; [17]) of 103%, a cell viability (P12-Ichikawa [5]; [18]) of 39.4% and a cell viability (P12-Ichikawa [5]; [19]) of 98.7%. It also gave a cell viability (P12-Ichikawa [5]; [20]) of 108%, a cell viability (P12-Ichikawa [5]; [21]) of 113% and a cell viability (P12-Ichikawa [5]; [22]) of 114%. For the same compound, the cell viability (P12-Ichikawa [5]; [23]) was 108%, the cell viability (P12-Ichikawa [5]; [24]) was 101% and the cell viability (P12-Ichikawa [5]; [25]) was 102%. For the same compound, the cell viability (P12-Ichikawa [5]; [26]) was 107%, the cell viability (P12-Ichikawa [5]; [27]) was 93% and the cell viability (P12-Ichikawa [5]; [28]) was 97.2%. The cell viability (P12-Ichikawa [5]; [29]) was 92.8%, the cell viability (P12-Ichikawa [5]; [30]) was 90.4% and the cell viability (P12-Ichikawa [5]; [31]) was 97.9%. For the same compound, the cell viability (P12-Ichikawa [5]; [32]) was 104%, the cell viability (P12-Ichikawa [5]; [33]) was 95.1% and the cell viability (P12-Ichikawa [5]; [34]) was 93.1%. The cell viability (P12-Ichikawa [5]; [35]) was 94.4%, the cell viability (P12-Ichikawa [5]; [36]) was 94% and the cell viability (P12-Ichikawa [5]; [37]) was 93.1%. It also gave a cell viability (P12-Ichikawa [5]; [38]) of 95.8%, a cell viability (P12-Ichikawa [5]; [39]) of 94.5% and a cell viability (P12-Ichikawa [5]; [40]) of 5.26%. The cell viability (SEM cells [6]; [8]) was 106%, the cell viability (SEM cells [6]; [9]) was 104% and the cell viability (SEM cells [6]; [10]) was 105%. It also gave a cell viability (SEM cells [6]; [11]) of 125%, a cell viability (SEM cells [6]; [12]) of 54% and a cell viability (SEM cells [6]; [13]) of 99.2%. It also gave a cell viability (SEM cells [6]; [14]) of 116%, a cell viability (SEM cells [6]; [15]) of 104% and a cell viability (SEM cells [6]; [16]) of 111%. The cell viability (SEM cells [6]; [17]) was 102%, the cell viability (SEM cells [6]; [18]) was 106% and the cell viability (SEM cells [6]; [19]) was 98.1%. The cell viability (SEM cells [6]; [20]) was 103%, the cell viability (SEM cells [6]; [21]) was 117% and the cell viability (SEM cells [6]; [22]) was 112%. It also gave a cell viability (SEM cells [6]; [23]) of 17.9%, a cell viability (SEM cells [6]; [24]) of 104% and a cell viability (SEM cells [6]; [25]) of 107%. The cell viability (SEM cells [6]; [26]) was 94.7%, the cell viability (SEM cells [6]; [27]) was 106% and the cell viability (SEM cells [6]; [28]) was 97.4%. For the same compound, the cell viability (SEM cells [6]; [29]) was 88.9%, the cell viability (SEM cells [6]; [30]) was 121% and the cell viability (SEM cells [6]; [31]) was 116%. For the same compound, the cell viability (SEM cells [6]; [32]) was 111%, the cell viability (SEM cells [6]; [33]) was 106% and the cell viability (SEM cells [6]; [34]) was 89.3%. For the same compound, the cell viability (SEM cells [6]; [35]) was 117%, the cell viability (SEM cells [6]; [36]) was 119% and the cell viability (SEM cells [6]; [37]) was 114%. It also gave a cell viability (SEM cells [6]; [38]) of 105%, a cell viability (SEM cells [6]; [39]) of 86.3% and a cell viability (SEM cells [6]; [40]) of 109%. The “AUC of viability dose-response curve” value (NOMO1 [1]; HPLM + 10% dialyzed FBS) was 466, the “AUC of viability dose-response curve” value (NOMO1 [1]; RPMI 5 mM glucose + 10% FBS) was 430 and the “AUC of viability dose-response curve” value (NOMO1 [1]; [7]) was 450. For the same compound, the “AUC of viability dose-response curve” value (P12-Ichikawa [2]; HPLM + 10% dialyzed FBS) was 462, the “AUC of viability dose-response curve” value (P12-Ichikawa [2]; RPMI 5 mM glucose + 10% FBS) was 456 and the “AUC of viability dose-response curve” value (P12-Ichikawa [2]; [7]) was 433.
